Measurements reported in the NIST ThermoML archive (doi:10.1021/je049789+).
± gives the expanded uncertainty stated by the source.

Settings: Liquid, Closed cell (Static) method

| Compound | vapor or sublimation pressure (258.15 K) | vapor or sublimation pressure (273.15 K) | vapor or sublimation pressure (293.15 K) |
| --- | --- | --- | --- |
| COC [dimethyl ether] | 152.9 ± 2.1 kPa | 266.8 ± 2.2 kPa | 509.3 ± 2.7 kPa |
| FCF [difluoromethane] | 488.1 ± 2.6 kPa | 814 ± 3.3 kPa | 1474.6 ± 4.8 kPa |
